Experimental data published in patent US11607454B2, “Devices and processes for Cherenkov-activated nuclear-targeted photodynamic therapy” (UNIVERSITY HEALTH NETWORK, priority 2016, dated 2023).

Key:
[1] = tested on: Pancreatic cells (BxPC-3); assay: phospho-gamma H2AX immunofluorescence assay of DNA damage after 18 MV X-ray irradiation generating Cherenkov light; type: cell-based; conditions: BxPC-3 cells, 4 micrograms per ml, 6 h incubation, 10 Gy X-ray, read 30 minutes after irradiation, +/- 1 standard deviation
Procedure: Following preparation of the nuclear-targeted copolymer-photosensitizer micelles (NPs) as above, tests were carried out of the effect on pancreatic cancer cells in tissue culture (in vitro) of X-ray irradiation under conditions that generate Cherenkov light. Pancreatic cells (BxPC-3: ATCC, VA, USA) were selected since treatment of pancreatic cancer is one example of how the current invention might be applied to address an unmet clinical need for a minimally invasive therapy for this highly fatal disease where conventional treatments such as radiation or chemotherapy are inadequate.
Cells were incubated with NPs with water as the vehicle. […]
At 30 minutes after irradiation, the damage to DNA in the cells was measured using phospho-gamma H2AX immunofluorescence assay, similar to that used for example by Fraser et al. (2012). […] The fluorescence was imaged on a confocal fluorescence microscope where the red fluorescence (488+/−10 nm excitation, >505 nm detection) corresponding to DNA double strand breaks could be visualized on the […] DAPI fluorescence background (405+/−10 nm excitation, 460+/−25 nm detection) and the intensity quantified. The red fluorescence intensity counts were integrated over 10-18 cells for each treatment condition. […]

cells in vitro = conditions: conjugation to branched peptides (loligomers) with nuclear-targeting sequences; cited from earlier work

Molecule | Mean fluorescence intensity counts ([1]; Cherenkov blocked (blackout material)) | Mean fluorescence intensity counts ([1]; Cherenkov unblocked) | reduction of the required dose of photosensitizer by nuclear localization (cells in vitro)
C1=Cc2nc1c(-c1ccccc1)c1nc(c(-c3ccccc3)c3ccc([nH]3)c(-c3ccccc3)c3ccc([nH]3)c2-c2ccccc2)C=C1 [TPP, tetraphenyl porphyrin] | 54.8 +/− 6.0 counts | 49.5 +/− 6.7 counts | –
chlorine 6 | – | – | greater than 100 fold
